Data on 47 compounds can be found in BindingDB's records for doi:10.1016/j.ejmech.2015.02.042 (University of Naples, 2015).

Where only a bound is given, the exact number is not on record here.

The target of test [1] is Prostaglandin E synthase (Homo sapiens) (UniProt O14684). The experiment in a line: Inhibition of mPGES1 in IL-1beta stimulated human A549 cell microsomal membranes assessed as reduction in PGE2 synthase activity after 15 mins using PGH2 substrate by RP-HPLC method.
Test [2] has the same target. Kind of test: Inhibition of human mPGES1.

Sequence of Prostaglandin E synthase (Homo sapiens) (O14684 whole entry, looked up): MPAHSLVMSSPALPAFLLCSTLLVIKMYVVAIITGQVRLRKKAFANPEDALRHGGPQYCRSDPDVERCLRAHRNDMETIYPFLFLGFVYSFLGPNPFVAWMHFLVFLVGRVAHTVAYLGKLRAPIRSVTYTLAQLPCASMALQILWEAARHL

`CCCCCCCCCCCCC1=C(O)C(=O)C=C(OC)C1=O`: the IC50 (in general, the point on the concentration scale where inhibition reaches its midpoint) in test [1] is 5.8 µM.

For `CCCCCCCCCCC1=C(O)C(=O)C=C(OC)C1=O`, the IC50 in test [1] is above 10 µM.

On to `CCCCCCCCCCCCCCC1=C(O)C(=O)C=C(O)C1=O`, for which the 50% inhibitory concentration (IC50) in test [1] amounted to 1.6 µM.

In the case of `CCCCCCCCCCCCC1=C(O)C(=O)C=C(O)C1=O`, the IC50 in test [1] stood at 3.1 µM.

As for `CCCCCCCCCCC1=C(O)C(=O)C=C(O)C1=O`, in test [1], the IC50 worked out at 1 µM.

For the compound `CCCCCCCCC1=C(O)C(=O)C=C(O)C1=O`, the concentration for half-maximal inhibition (IC50) in test [1] worked out at 0.8 µM.

Regarding `CCCCCCC1=C(O)C(=O)C=C(O)C1=O`, the IC50 in test [1] is above 10 µM.

As for `CCCCC1=C(O)C(=O)C=C(O)C1=O`, in test [1], the IC50 is above 10 µM.

As for `CCCCCCCCCCCCCCC1=C(O)C(=O)C=C(OC)C1=O`, the IC50 in test [1] was above 10 µM.

As for `CCCCCCCCCCCCCCCC1=C(O)C(=O)C=C(OC)C1=O`, the IC50 in test [1] is 9.3 µM.

For `CCCCCCCCCCCCCCCCC1=C(O)C(=O)C=C(OC)C1=O`, the IC50 in test [1] was above 10 µM.

For the compound `COC1=CC(=O)C(O)=C(C/C=C(\C)CCC=C(C)C)C1=O`, the concentration for half-maximal inhibition (IC50) in test [1] is above 10 µM.

For the compound `COC1=CC(=O)C(O)=C(C/C=C(\C)CC/C=C(\C)CCC=C(C)C)C1=O`, the IC50 in test [1] is above 10 µM.

As for `CCCCC1=C(OC)C(=O)C=C(OC)C1=O`, the 50% inhibitory concentration (IC50) in test [1] is above 10 µM.

In the case of `CCCCCCC1=C(OC)C(=O)C=C(OC)C1=O`, in test [1], the concentration for half-maximal inhibition (IC50) was above 10 µM.

As to `CCCCCCCCC1=C(OC)C(=O)C=C(OC)C1=O`, the IC50 in test [1] was above 10 µM.

For the compound `CCCCCCCCCCC1=C(OC)C(=O)C=C(OC)C1=O`, the IC50 in test [1] was above 10 µM.

With `CCCCCCCCCCCC1=C(OC)C(=O)C=C(OC)C1=O`, the IC50 in test [1] is above 10 µM.

For the compound `CCCCCCCCCCCCC1=C(OC)C(=O)C=C(OC)C1=O`, the IC50 in test [1] stood at 4.7 µM.

For the compound `CCCCCCCCCCCCCC1=C(OC)C(=O)C=C(OC)C1=O`, the IC50 in test [1] amounted to 1.8 µM.

For `CCCCCCCCCCCCCCC1=C(OC)C(=O)C=C(OC)C1=O`, in test [1], the 50% inhibitory concentration (IC50) is 4.4 µM.

Take `CCCCCCCCCCCCCCCC1=C(OC)C(=O)C=C(OC)C1=O`: the IC50 in test [1] amounted to 7.2 µM.

`CCCCCCCCCCCCCCCCC1=C(OC)C(=O)C=C(OC)C1=O`: the half-inhibitory concentration (IC50) in test [1] is above 10 µM.

Regarding `COC1=CC(=O)C(OC)=C(C/C=C(\C)CCC=C(C)C)C1=O`, the IC50 in test [1] is above 10 µM.

As for `COC1=CC(=O)C(OC)=C(C/C=C(\C)CC/C=C(\C)CCC=C(C)C)C1=O`, in test [1], the IC50 was above 10 µM.

With `CCCCC1=C(OC)C(OC)=CC(=O)C1=O`, the IC50 in test [1] was above 10 µM.

Turning to `CCCCCCC1=C(OC)C(OC)=CC(=O)C1=O`, the half-inhibitory concentration (IC50) in test [1] is above 10 µM.

For `CCCCCCCCC1=C(OC)C(OC)=CC(=O)C1=O`, the half-inhibitory concentration (IC50) in test [1] was above 10 µM.

For `CCCCCCCCC1=C(O)C(=O)C=C(OC)C1=O`, in test [1], the half-maximal inhibitory concentration (IC50) is above 10 µM.

Turning to `CCCCCCC1=C(O)C(=O)C=C(OC)C1=O`, the IC50 in test [1] was above 10 µM.

On to `CCCCC1=C(O)C(=O)C=C(OC)C1=O`, for which the IC50 in test [1] was above 10 µM.

For `CC(C)=CCC/C(C)=C/CC/C(C)=C/CC1=C(O)C(=O)C=C(O)C1=O`, the 50% inhibitory concentration (IC50) in test [1] is above 10 µM.

As for `CC(C)=CCC/C(C)=C/CC1=C(O)C(=O)C=C(O)C1=O`, the 50% inhibitory concentration (IC50) in test [1] was above 10 µM.

For the compound `CCCCCCCCCCCCCCCCC1=C(O)C(=O)C=C(O)C1=O`, in test [1], the concentration for half-maximal inhibition (IC50) was above 10 µM.

On to `CCCCCCCCCCCCCCCC1=C(O)C(=O)C=C(O)C1=O`, for which the half-maximal inhibitory concentration (IC50) in test [1] stood at 2.1 µM.

On to `COC1=CC(=O)C(=O)C(C/C=C(\C)CC/C=C(\C)CCC=C(C)C)=C1OC`, for which the 50% inhibitory concentration (IC50) in test [1] is above 10 µM.

Turning to `COC1=CC(=O)C(=O)C(C/C=C(\C)CCC=C(C)C)=C1OC`, in test [1], the IC50 was above 10 µM.

For the compound `CCCCCCCCCCCCCCCC1=C(OC)C(OC)=CC(=O)C1=O`, the IC50 in test [1] was above 10 µM.

For the compound `CCCCCCCCCCCCCCC1=C(OC)C(OC)=CC(=O)C1=O`, in test [1], the concentration for half-maximal inhibition (IC50) was above 10 µM.

Consider `CCCCCCCCCCCCCC1=C(OC)C(OC)=CC(=O)C1=O`, for which, in test [1], the IC50 was above 10 µM.

As for `CCCCCCCCCCCCC1=C(OC)C(OC)=CC(=O)C1=O`, the IC50 in test [1] was above 10 µM.

Take `CCCCCCCCCCCC1=C(OC)C(OC)=CC(=O)C1=O`: in test [1], the IC50 is above 10 µM.

Turning to `CCCCCCCCCCC1=C(OC)C(OC)=CC(=O)C1=O`, the concentration for half-maximal inhibition (IC50) in test [1] is above 10 µM.

For `CCCCCCCCCCCC1=C(O)C(=O)C=C(O)C1=O` [CHEBI:4778], the IC50 in test [1] and in test [2] was 0.21 µM each time.

Take `CCCCCCCCCCCCCC1=C(O)C(=O)C=C(O)C1=O` [CHEBI:8779]: the half-maximal inhibitory concentration (IC50) in test [1] was determined as 0.9 µM.

Consider `CCCCCCCCCCCC1=C(O)C(=O)C=C(OC)C1=O` [CHEBI:65842], for which, in test [1], the half-inhibitory concentration (IC50) was found to be 9.1 µM.

In the case of `CCCCCCCCCCCCCC1=C(O)C(=O)C=C(OC)C1=O` [Sorgoleone-364], the IC50 in test [1] amounted to 6.1 µM.
